Source: patent US6806286B2, “Pyrrolecarboxamides and pyrrolethioamides as fungicides” (Syngenta Crop Protection, Inc., priority 2000, dated 2004)

Columns and labels:
Botryis cinerea = assay: Action against Botryis cinerea/apple (Botrytis on apple fruits); format: in vivo, B. cinerea; details: apple fruit cv. Golden Delicious, 30 μl droplets 0.002% active ingredient in drilled holes, inoculated two hours after application, assessed after 7 days
Protocol: Action Against Botryis cinerea/apple (Botrytis on Apple Fruits)
In an apple fruit cv. […] Two hours after application 50 μl of a spore suspension of B. cinerea (4×10^5 conidia/ml) are pipetted on the application sites. After an incubation period of 7 days at 22° C. in a growth chamber the disease incidence is assessed.

Podosphaera leucotricha = assay: Action against Podosphaera leucotricha/apple (powdery mildew on apple); format: in vivo; details: apple seedlings cv. McIntosh, spray 0.002% active ingredient, inoculated one day after application, assessed after 12 days incubation
Protocol: Action Against Podosphaera leucotricha/apple (Powdery Mildew on Apple)
5 week old apple seedlings cv. […] One day after application apple plants are inoculated by shaking plants infected with apple powdery mildew above the test plants. After an incubation period of 12 days at 22° C. and 60% r. h. under a light regime of 14/10 h (light/dark) the disease incidence is assessed.

Etysiphe graminis = assay: Action against Etysiphe graminis/barley (powdery mildew on barley); format: in vivo; details: barley plants cv. Express, spray 0.02% active ingredient, inoculated one day after application, assessed after 6 days incubation
Protocol: Action Against Etysiphe graminis/barley (Powdery Mildew on Barley)
1 week old barley plants cv. […] One day after application barley plants are inoculated by shaking powdery mildew infected plants above the test plants. After an incubation period of 6 days at 20° C./18° C. (day/night) and 60% r. h. in a greenhouse the disease incidence is assessed.

Venturia Inaequalis = assay: Action against Venturia inaequalis/apple (scab on apple); format: in vivo; details: apple seedlings cv. McIntosh, spray 0.02% active ingredient, inoculated one day after application, assessed after 4+4+4 days incubation
Protocol: Action Against Venturia Inaequalis/apple (Scab on Apple)
4 week old apple seedlings cv. […] One day after application apple plants are inoculated by spraying a spore suspension (4×10^5 conidia/ml) on the test plants. After an incubation period of 4 days at 21° C. and 95% r. h. the plants are placed for 4 days at 21° C. and 60% r. h. in a greenhouse. After another 4 day incubation period at 21° C. and 95% r. h. the disease incidence is assessed.

Boftis cinerea = assay: Action against Boftis cinerea/grape (Botrytis on grapes); format: in vivo; details: grape seedlings cv. Gutedel, spray 0.002% active ingredient, inoculated two days after application, assessed after 4 days incubation
Protocol: Action Against Boftis cinerea/grape (Botrytis on Grapes)
5 week old grape seedlings cv. […] Two days after application grape plants are inoculated by spraying a spore suspension (1×10^6 conidia/ml) on the test plants. After an incubation period of 4 days at 21° C. and 95% r. h. in a greenhouse the disease incidence is assessed.

Puenophora teres = assay: Action against Puenophora teres/barley (net blotch on barley); format: in vivo; details: barley plants cv. Express, spray 0.002% active ingredient, inoculated two days after application, assessed 4 days after inoculation
Protocol: Action Against Puenophora teres/barley (Net Blotch on Barley)
1 week old barley plants cv. […] Two days after application barley plants are inoculated by spraying a spore suspension (3×10^4 conidia/ml) on the test plants. After an incubation period of 2 days at 20° C. and 95% r. h. plants are kept for 2 days at 20° C. and 60% r.h. in a greenhouse. The disease incidence is assessed 4 days after inoculation.

Septoria nodorum = assay: Action against Septoria nodorum/wheat (Septoria leaf spot on wheat); format: in vivo; details: wheat plants cv. Arina, spray 0.02% active ingredient, inoculated one day after application, assessed 11 days after inoculation
Protocol: Action Against Septoria nodorum/wheat (Septoria Leaf Spot on Wheat)
1 week old wheat plants cv. […] One day after application wheat plants are inoculated by spraying a spore suspension (5×10^5 conidia/ml) on the test plants. After an incubation period of 1 day at 20° C. and 95% r. h. plants are kept for 10 days at 20° C. and 60% r.h. in a greenhouse. The disease incidence is assessed 11 days after inoculation.

Botryts cinerea = assay: Action against Botryts cinerea/tomato (Botrytis on tomatoes); format: in vivo; details: tomato plants cv. Roter Gnom, spray 0.002% active ingredient, inoculated two days after application, assessed after 4 days incubation
Protocol: Action Against Botryts cinerea/tomato (Botrytis on Tomatoes)
4 week old tomato plants cv. […] Two days after application tomato plants are inoculated by spraying a spore suspension (1×10^5 conidia/ml) on the test plants. After an incubation period of 4 days at 20° C. and 95% r. h. in a growth chamber the disease incidence is assessed.

Measured: efficacy (disease incidence)

CC1CC(C)(C)c2cccc(NC(=O)c3cn(C)cc3C(F)(F)C(F)(F)F)c21 (racemic) [Compound 10.5]
strong efficacy: all assays above

Cc1cn(C)cc1C(=O)Nc1ccccc1C1=CCCCC1 [Compound 1.5]
strong efficacy: all assays above

Cc1cn(C)cc1C(=O)Nc1ccccc1C1CCCCC1 [Compound 1.9]
strong efficacy: all assays above

Cc1cn(C)cc1C(=O)Nc1ccccc1-c1ccc(Cl)cc1 [Compound 1.23]
strong efficacy: all assays above

Cc1cn(C)cc1C(=O)Nc1ccccc1-c1ccncc1F [Compound 1.46]
strong efficacy: all assays above

Cn1cc(C(=O)Nc2ccccc2-c2ccc(Cl)cc2)c(C(F)F)c1 [Compound 1.144]
strong efficacy: all assays above

Cn1cc(C(=O)Nc2ccccc2C2=CCCCC2)c(C(F)(F)C(F)(F)F)c1 [Compound 1.183]
strong efficacy: all assays above

Cn1cc(C(=O)Nc2ccccc2C2CCCCC2)c(C(F)(F)C(F)(F)F)c1 [Compound 1.187]
strong efficacy: all assays above

Cn1cc(C(=O)Nc2ccccc2-c2ccc(Cl)cc2)c(C(F)(F)C(F)(F)F)c1 [Compound 1.190]
strong efficacy: all assays above

Cn1cc(C(=O)Nc2ccccc2-c2ccc(F)cc2)c(C(F)(F)C(F)(F)F)c1 [Compound 1.192]
strong efficacy: all assays above

Cn1cc(C(=O)Nc2ccccc2C2CCCCC2)c(C2CC2)c1 [Compound 1.206]
strong efficacy: all assays above

Cn1cc(C(=O)Nc2ccccc2-c2ccncc2F)c(C2CC2)c1 [Compound 1.244]
strong efficacy: all assays above

CCc1cn(C)cc1C(=O)Nc1ccccc1-c1ccc(Cl)cc1 [Compound 1.260]
strong efficacy: all assays above

CCc1cn(C)cc1C(=O)Nc1ccccc1-c1ccc(F)cc1 [Compound 1.261]
strong efficacy: all assays above

CCc1cn(CC)cc1C(=O)Nc1ccccc1-c1ccc(Cl)cc1 [Compound 1.265]
strong efficacy: all assays above
